Columns and labels:
Assay in all cases: cells
Format in all cases: functional, cell-based, Homo sapiens
[1] = tested on: COLO-824; details: Homo sapiens, COLO-824
Description: SANGER: Inhibition of human COLO-824 cell growth in a cell viability assay.

[2] = tested on: DEL; details: Homo sapiens, DEL;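 further: growth inhibition of the human DEL cell line, read out with a cell viability assay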
Description: SANGER: Inhibition of human DEL cell growth in a cell viability assay.

[3] = tested on: DSH1; details: Homo sapiens, DSH1;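 further: growth inhibition of human DSH1 cells, measured with a cell viability readout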
Description: SANGER: Inhibition of human DSH1 cell growth in a cell viability assay.

[4] = tested on: DU-4475; details: Homo sapiens, DU-4475
Description: SANGER: Inhibition of human DU-4475 cell growth in a cell viability assay.

[5] = tested on: EW-13; details: Homo sapiens, EW-13;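 further: growth inhibition of EW-13 cells, read out with a cell viability assay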
Description: SANGER: Inhibition of human EW-13 cell growth in a cell viability assay.

[6] = tested on: GCIY; details: Homo sapiens, GCIY;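 further: growth inhibition of the human GCIY cell line, read out by a cell viability assay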
Description: SANGER: Inhibition of human GCIY cell growth in a cell viability assay.

[7] = tested on: GI-1; details: Homo sapiens, GI-1;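 further: growth inhibition of human GI-1 cells, measured with a cell viability readout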
Description: SANGER: Inhibition of human GI-1 cell growth in a cell viability assay.

[8] = tested on: GOTO; details: Homo sapiens, GOTO;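 further: growth inhibition of GOTO cells, read out by a cell viability assay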
Description: SANGER: Inhibition of human GOTO cell growth in a cell viability assay.

[9] = tested on: HC-1; details: Homo sapiens, HC-1;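 further: growth inhibition of HC-1 cells measured by a cell viability assay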
Description: SANGER: Inhibition of human HC-1 cell growth in a cell viability assay.

[10] = tested on: HCC2218; details: Homo sapiens, HCC2218;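 further: cell viability assay read-out, with IC50 given as the concentration that inhibits growth of the cell line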
Description: SANGER: Inhibition of human HCC2218 cell growth in a cell viability assay.

[11] = tested on: IST-MES1; details: Homo sapiens, IST-MES1;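 further: growth inhibition of IST-MES1 cells, measured with a cell viability assay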
Description: SANGER: Inhibition of human IST-MES1 cell growth in a cell viability assay.

[12] = tested on: IST-SL1; details: Homo sapiens, IST-SL1;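 further: growth inhibition of human IST-SL1 cells, read out with a cell viability assay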
Description: SANGER: Inhibition of human IST-SL1 cell growth in a cell viability assay.

[13] = tested on: J-RT3-T3-5; details: Homo sapiens, J-RT3-T3-5;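 further: cell viability assay measuring growth inhibition of human J-RT3-T3-5 cells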
Description: SANGER: Inhibition of human J-RT3-T3-5 cell growth in a cell viability assay.

[14] = tested on: K5; details: Homo sapiens, K5
Description: SANGER: Inhibition of human K5 cell growth in a cell viability assay.

[15] = tested on: KLE; details: Homo sapiens, KLE;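 further: growth inhibition of human KLE cells, read out with a cell viability assay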
Description: SANGER: Inhibition of human KLE cell growth in a cell viability assay.

[16] = tested on: KP-N-YS; details: Homo sapiens, KP-N-YS;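 further: cell viability assay measuring inhibition of cell line growth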
Description: SANGER: Inhibition of human KP-N-YS cell growth in a cell viability assay.

[17] = tested on: KU812 cell line; details: Homo sapiens, KU812;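 further: growth inhibition of KU812 cells, read out with a cell viability assay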
Description: SANGER: Inhibition of human KU812 cell growth in a cell viability assay.

[18] = tested on: L-428; details: Homo sapiens, L-428
Description: SANGER: Inhibition of human L-428 cell growth in a cell viability assay.

[19] = tested on: LAMA-84; details: Homo sapiens, LAMA-84;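 further: growth inhibition of LAMA-84 cells, read out with a cell viability assay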
Description: SANGER: Inhibition of human LAMA-84 cell growth in a cell viability assay.

[20] = tested on: LNCaP-Clone-FGC; details: Homo sapiens, LNCaP-Clone-FGC
Description: SANGER: Inhibition of human LNCaP-Clone-FGC cell growth in a cell viability assay.

[21] = tested on: MMAC-SF; details: Homo sapiens, MMAC-SF;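 further: growth inhibition of human MMAC-SF cells, read out with a cell viability assay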
Description: SANGER: Inhibition of human MMAC-SF cell growth in a cell viability assay.

[22] = tested on: MN-60; details: Homo sapiens, MN-60;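 further: growth inhibition of the MN-60 cell line, determined with a cell viability assay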
Description: SANGER: Inhibition of human MN-60 cell growth in a cell viability assay.

[23] = tested on: MZ1-PC; details: Homo sapiens, MZ1-PC;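 further: cell viability assay measuring growth inhibition of human MZ1-PC cells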
Description: SANGER: Inhibition of human MZ1-PC cell growth in a cell viability assay.

[24] = tested on: NB13; details: Homo sapiens, NB13;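 further: cell viability readout measuring growth inhibition of human NB13 cells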
Description: SANGER: Inhibition of human NB13 cell growth in a cell viability assay.

[25] = tested on: NCI-H1355; details: Homo sapiens, NCI-H1355;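 further: growth inhibition of human NCI-H1355 cells, read out by a cell viability assay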
Description: SANGER: Inhibition of human NCI-H1355 cell growth in a cell viability assay.

[26] = tested on: NCI-H1838; details: Homo sapiens, NCI-H1838;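 further: growth inhibition of NCI-H1838 cells, determined with a cell viability readout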
Description: SANGER: Inhibition of human NCI-H1838 cell growth in a cell viability assay.

[27] = tested on: NCI-H2126; details: Homo sapiens, NCI-H2126;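 further: growth inhibition of the cancer cell line, determined with a cell viability readout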
Description: SANGER: Inhibition of human NCI-H2126 cell growth in a cell viability assay.

[28] = tested on: NCI-H226; details: Homo sapiens, NCI-H226;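 further: cell viability read-out used to gauge growth inhibition of the cells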
Description: SANGER: Inhibition of human NCI-H226 cell growth in a cell viability assay.

[29] = tested on: NCI-H510A; details: Homo sapiens, NCI-H510A;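 further: growth inhibition of NCI-H510A cells, read out with a cell viability assay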
Description: SANGER: Inhibition of human NCI-H510A cell growth in a cell viability assay.

[30] = tested on: NCI-H82; details: Homo sapiens, NCI-H82;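 further: growth inhibition of NCI-H82 cells, measured with a cell viability readout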
Description: SANGER: Inhibition of human NCI-H82 cell growth in a cell viability assay.

[31] = tested on: SNU1; details: Homo sapiens, SNU1;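 further: growth inhibition of human NCI-SNU-1 cells, measured with a cell viability assay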
Description: SANGER: Inhibition of human NCI-SNU-1 cell growth in a cell viability assay.

[32] = tested on: NH-12; details: Homo sapiens, NH-12;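 further: growth inhibition of NH-12 cells, read out with a cell viability assay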
Description: SANGER: Inhibition of human NH-12 cell growth in a cell viability assay.

[33] = tested on: NKM-1; details: Homo sapiens, NKM-1;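 further: growth inhibition of NKM-1 cells, read out with a cell viability assay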
Description: SANGER: Inhibition of human NKM-1 cell growth in a cell viability assay.

[34] = tested on: OMC-1; details: Homo sapiens, OMC-1;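 further: growth inhibition of the OMC-1 cell line, measured by a cell viability assay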
Description: SANGER: Inhibition of human OMC-1 cell growth in a cell viability assay.

[35] = tested on: ONS-76; details: Homo sapiens, ONS-76;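 further: growth inhibition of human ONS-76 cells, read out with a cell viability assay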
Description: SANGER: Inhibition of human ONS-76 cell growth in a cell viability assay.

[36] = tested on: OVCAR-4; details: Homo sapiens, OVCAR-4;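 further: growth inhibition of human OVCAR-4 cells, measured with a cell viability assay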
Description: SANGER: Inhibition of human OVCAR-4 cell growth in a cell viability assay.

[37] = tested on: QIMR-WIL; details: Homo sapiens, QIMR-WIL;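 further: growth inhibition of QIMR-WIL cells, read out with a cell viability assay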
Description: SANGER: Inhibition of human QIMR-WIL cell growth in a cell viability assay.

[38] = tested on: RCC10RGB; details: Homo sapiens, RCC10RGB;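 further: growth inhibition of human RCC10RGB cells, read out by a cell viability assay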
Description: SANGER: Inhibition of human RCC10RGB cell growth in a cell viability assay.

[39] = tested on: RPMI-8866; details: Homo sapiens, RPMI-8866
Description: SANGER: Inhibition of human RPMI-8866 cell growth in a cell viability assay.

[40] = tested on: SF-268; details: Homo sapiens, SF-268;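 further: growth inhibition of SF-268 cells determined with a cell viability assay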
Description: SANGER: Inhibition of human SF268 cell growth in a cell viability assay.

[41] = tested on: SK-LMS-1; details: Homo sapiens, SK-LMS-1;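 further: growth inhibition of human SK-LMS-1 cells, read out with a cell viability assay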
Description: SANGER: Inhibition of human SK-LMS-1 cell growth in a cell viability assay.

[42] = tested on: SNB-75; details: Homo sapiens, SNB-75;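 further: cell viability assay measuring growth inhibition of human SNB-75 cells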
Description: SANGER: Inhibition of human SNB75 cell growth in a cell viability assay.

[43] = tested on: BB49-HNC; details: Homo sapiens, BB49-HNC;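 further: cell viability assay read-out, reported as inhibition of BB49-HNC cell growth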
Description: SANGER: Inhibition of human BB49-HNC cell growth in a cell viability assay.

[44] = tested on: Becker; details: Homo sapiens, Becker;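 further: growth inhibition of Becker cells, read out with a cell viability assay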
Description: SANGER: Inhibition of human Becker cell growth in a cell viability assay.

[45] = tested on: C2BBe1; details: Homo sapiens, C2BBe1;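 further: growth inhibition of C2BBe1 cells, read out through a viability assay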
Description: SANGER: Inhibition of human C2BBe1 cell growth in a cell viability assay.

[46] = tested on: TE-6; details: Homo sapiens, TE-6;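 further: growth inhibition of TE-6 cells, read out with a cell viability assay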
Description: SANGER: Inhibition of human TE-6 cell growth in a cell viability assay.

[47] = tested on: TGBC24TKB; details: Homo sapiens, TGBC24TKB;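 further: growth inhibition of human TGBC24TKB cells, read out with a cell viability assay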
Description: SANGER: Inhibition of human TGBC24TKB cell growth in a cell viability assay.

[48] = tested on: no-10; details: Homo sapiens;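 further: growth inhibition of no-10 cells, read out with a cell viability assay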
Description: SANGER: Inhibition of human no-10 cell growth in a cell viability assay.

[49] = tested on: CCRF-CEM; details: Homo sapiens, CCRF-CEM;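 further: inhibition of CCRF-CEM cell growth, measured by a cell viability assay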
Description: SANGER: Inhibition of human CCRF-CEM cell growth in a cell viability assay.

COc1cccc2c1C(=O)c1c(O)c3c(c(O)c1C2=O)C[C@@](O)(C(=O)CO)C[C@@H]3O[C@H]1C[C@H](N)[C@H](O)[C@H](C)O1 [DOXORUBICIN]
IC50 [1]: > 1.02 µM | IC50 [2]: 0.0384 µM | IC50 [3]: 0.373 µM | IC50 [4]: 0.0121 µM | IC50 [5]: 0.00963 µM | IC50 [6]: 0.725 µM | IC50 [7]: 0.0697 µM | IC50 [8]: 0.286 µM | IC50 [9]: 0.0373 µM | IC50 [10]: 0.182 µM | IC50 [11]: 0.323 µM | IC50 [12]: 0.517 µM | IC50 [13]: 0.0963 µM | IC50 [14]: 0.0969 µM | IC50 [15]: 0.175 µM | IC50 [16]: 0.218 µM | IC50 [17]: 0.0332 µM | IC50 [18]: 0.791 µM | IC50 [19]: 0.437 µM | IC50 [20]: 0.204 µM | IC50 [21]: 0.106 µM | IC50 [22]: 0.605 µM | IC50 [23]: 0.0238 µM | IC50 [24]: 0.135 µM | IC50 [25]: 0.152 µM | IC50 [26]: 0.405 µM | IC50 [27]: 0.192 µM | IC50 [28]: 0.417 µM | IC50 [29]: 0.36 µM | IC50 [30]: > 1.02 µM | IC50 [31]: 0.0659 µM | IC50 [32]: 0.076 µM | IC50 [33]: 0.0295 µM | IC50 [34]: 0.172 µM | IC50 [35]: 0.0189 µM | IC50 [36]: 0.157 µM | IC50 [37]: 0.0207 µM | IC50 [38]: > 1.02 µM | IC50 [39]: 0.192 µM | IC50 [40]: 0.0924 µM | IC50 [41]: 0.0532 µM | IC50 [42]: 0.149 µM | IC50 [43]: > 1.02 µM | IC50 [44]: 0.522 µM | IC50 [45]: > 1.02 µM | IC50 [46]: 0.47 µM | IC50 [47]: > 1.02 µM | IC50 [48]: 0.16 µM | IC50 [49]: 0.0245 µM

O=C(O)c1ccc(-c2c[nH]c3ncc(-c4ccccc4)cc23)cc1C1CCCC1 [GSK-650394]
IC50 [1]: > 16 µM | IC50 [2]: 5.11 µM | IC50 [3]: > 16 µM | IC50 [4]: > 16 µM | IC50 [5]: 3.02 µM | IC50 [6]: > 16 µM | IC50 [7]: > 16 µM | IC50 [8]: > 16 µM | IC50 [9]: > 16 µM | IC50 [10]: > 16 µM | IC50 [11]: > 16 µM | IC50 [12]: > 16 µM | IC50 [13]: > 16 µM | IC50 [14]: > 16 µM | IC50 [15]: > 16 µM | IC50 [16]: 4.39 µM | IC50 [17]: 2.19 µM | IC50 [18]: > 16 µM | IC50 [19]: 10.2 µM | IC50 [20]: > 16 µM | IC50 [21]: > 16 µM | IC50 [22]: > 16 µM | IC50 [23]: > 16 µM | IC50 [24]: > 16 µM | IC50 [25]: > 16 µM | IC50 [26]: > 16 µM | IC50 [27]: > 16 µM | IC50 [28]: 15.6 µM | IC50 [29]: > 16 µM | IC50 [30]: > 16 µM | IC50 [31]: > 16 µM | IC50 [32]: 12.3 µM | IC50 [33]: 2.77 µM | IC50 [34]: > 16 µM | IC50 [35]: 4.14 µM | IC50 [36]: > 16 µM | IC50 [37]: 8.8 µM | IC50 [38]: > 16 µM | IC50 [39]: > 16 µM | IC50 [40]: > 16 µM | IC50 [41]: 5.38 µM | IC50 [42]: > 16 µM | IC50 [43]: > 16 µM | IC50 [44]: > 16 µM | IC50 [45]: > 16 µM | IC50 [46]: > 16 µM | IC50 [47]: > 16 µM | IC50 [48]: > 16 µM | IC50 [49]: > 16 µM

Source: ChEMBL document CHEMBL1201861, “Genomics of Drug Sensitity in Cancer screening data, Wellcome Trust Sanger Institute”
